In ChEMBL document CHEMBL6127121, “Development of N-(4-(1H-Imidazol-1-yl)phenyl)-4-chlorobenzenesulfonamide, a Novel Potent Inhibitor of β-Catenin with Enhanced Antitumor Activity and Metabolic Stability” (J Med Chem, 2024):
pEC50: −log10 of the molar value. Activity calls are given as the source filed them. The calls are words filed in the database; no cut-off is given here.

Tests used:
[1] = test system: SW480; assay: Inhibition of Wnt/beta-catenin signaling in human SW480 cells assessed as residual activity at IC50 concentration incubated for 12 hrs by Topflash/Fopflash Dual-Glo luciferase reporter assay; assay type: cell-based; details: dose 30.0 µM
[2] = test system: HCT-116; assay: Inhibition of Wnt/beta-catenin signaling in human HCT-116 cells assessed as residual activity at IC50 concentration incubated for 12 hrs by Topflash/Fopflash Dual-Glo luciferase reporter assay; assay type: cell-based; details: dose 30.0 µM
[3] = test system: SW480; assay: Inhibition of cell growth in human SW480 cells incubated for 48 to 72 hrs by XTT method; assay type: functional, cell-based
[4] = test system: HCT-116; assay: Inhibition of cell growth in human HCT-116 cells incubated for 48 to 72 hrs by XTT method; assay type: functional, cell-based
[5] = test system: MDA-MB-231; assay: Antiproliferative activity against human MDA-MB-231 cells at 1.48 to 40 uM incubated for 72 hrs by IncuCyte live-cell imaging analysis; assay type: functional, cell-based; details: dose 1.48-40 µM
[6] = test system: MDA-MB-231; assay: Antiproliferative activity against human MDA-MB-231 cells at 13.33 uM incubated for 72 hrs by IncuCyte live-cell imaging analysis; assay type: functional, cell-based
[7] = Metabolic stability in human liver microsomes assessed as intrinsic clearance per mg protein preincubated for 10 mins followed by NADP, glucose-6-phosphate and glucose-6-phosphate dehydrogenase addition and measured upto 60 mins by LC-MS/MS analysis; assay type: ADME, Microsome; details: time < 70 min, read-out: CLH
[8] = Metabolic stability in human liver microsomes assessed as half life preincubated for 10 mins followed by NADP, glucose-6-phosphate and glucose-6-phosphate dehydrogenase addition and measured upto 60 mins by LC-MS/MS analysis; assay type: ADME, Microsome; details: time < 70 min
[9] = Metabolic stability in mouse liver microsomes assessed as intrinsic clearance per mg protein preincubated for 10 mins followed by NADP, glucose-6-phosphate and glucose-6-phosphate dehydrogenase addition and measured upto 60 mins by LC-MS/MS analysis; assay type: ADME, Microsome; details: time < 70 min, read-out: CLH
[10] = Metabolic stability in mouse liver microsomes assessed as half life preincubated for 10 mins followed by NADP, glucose-6-phosphate and glucose-6-phosphate dehydrogenase addition and measured upto 60 mins by LC-MS/MS analysis; assay type: ADME, Microsome; details: time < 70 min

SMILES | pEC50 [3] | pEC50 [4] | microsomal CLint [7] | half-life [8] | microsomal CLint [9] | half-life [10] | Activity [1] | Activity [2] | Activity [5] | Activity [6]
O=S(=O)(Nc1cccc(-c2ccccc2)c1)c1ccc(C(F)(F)F)cc1 | 4.37 | 4.32 | – | – | – | – | 28.3% | 36.4% | – | –
O=S(=O)(Nc1cccc(-n2ccnc2)c1)c1ccc(Cl)cc1 | < 4.30 | < 4.30 | – | – | – | – | 2.3% | 8.4% | – | –
O=S(=O)(Nc1cccc(-n2ccnc2)c1)c1ccc(Br)cc1 | < 4.30 | < 4.30 | – | – | – | – | 3.6% | 3.1% | – | –
COC(=O)c1ccc(NS(=O)(=O)c2ccc(Br)cc2)cc1 | – | – | – | – | – | – | 19.4% | 2.5% | – | –
O=S(=O)(Nc1cccc(-c2ccccn2)c1)c1ccc(C(F)(F)F)cc1 | < 4.30 | < 4.30 | – | – | – | – | 3.4% | 6.6% | – | –
O=S(=O)(Nc1ccc(-c2ccco2)cc1)c1ccc(C(F)(F)F)cc1 | < 4.30 | < 4.30 | – | – | – | – | 6.6% | 2.4% | – | –
O=S(=O)(Nc1ccc(-c2ccoc2)cc1)c1ccc(C(F)(F)F)cc1 | < 4.30 | < 4.26 | – | – | – | – | 4.4% | 9.7% | – | –
CCOc1ccc2ccc(=O)oc2c1 | – | – | 94 µL/min/mg | 14.8 min | 712 µL/min/mg | 1.9 min | – | – | – | –
CC(C)NCC(O)COc1cccc2ccccc12 (configuration not stated) [PROPRANOLOL] | – | – | – | 35.2 min | – | – | – | – | – | –

More lines, in order of rising pEC50 [3], values ahead:

pEC50 [3] | pEC50 [4] | microsomal CLint [7] | half-life [8] | microsomal CLint [9] | half-life [10] | SMILES | Activity [1] | Activity [2] | Activity [5] | Activity [6]
4.46 | 4.21 | – | – | – | – | O=S(=O)(Nc1ccc(-c2ccoc2)cc1)c1ccc(Br)cc1 | 28.4% | 32.1% | – | –
4.51 | 4.57 | – | – | – | – | O=S(=O)(Nc1ccc(-c2ccccc2)cc1)c1ccc(Br)cc1 | 8.1% | 3.2% | – | –
4.57 | 4.49 | – | – | – | – | O=S(=O)(Nc1ccc(-c2ccsc2)cc1)c1ccc(Br)cc1 | 3.7% | 8.6% | – | –
4.77 | 4.92 | – | – | – | – | O=S(=O)(Nc1ccc(-c2ccsc2)cc1)c1ccc(C(F)(F)F)cc1 | 5.6% | 2.4% | – | –
4.85 | 4.80 | – | – | – | – | O=S(=O)(Nc1ccc(-n2ccnc2)cc1)c1ccc(C(F)(F)F)cc1 | 6% | 4.4% | – | –
4.92 | 5.05 | – | – | – | – | O=S(=O)(Nc1cccc(-c2ccccc2)c1)c1ccc(Br)cc1 | 22.7% | 33.5% | Active | Active
